# Measurements from patent US9522962B2, “Peptides, conjugates and method for increasing immunogenicity of a vaccine” (Academisch Ziekenhuis Leiden h.o.d.n. LUMC, priority 2010, dated 2016).
# Entries after “also recorded” stand apart in the source; their conditions may differ. Like-named read-outs stand apart in the source and are kept apart here. Square brackets hold non-standard residues; d marks the D form. Ends that are not written are not given here. * marks the point of attachment. Biotin = O=C1N[C@H]2[C@H](CS[C@H]2CCCCC(=O)*)N1; code O = not defined here; Ahx = NCCCCCC(=O)O
# Key:
# [1] = system: antibodies in TETAQUIN® (anti-TTd antibodies); type: binding, human
# [2] = system: antibodies in individual human sera (e.g. serum 034960); assay: Tettox ELISA of biotinylated peptides on individual human sera; type: binding; conditions: human serum 034960 diluted 100x
# Method: a 96-wells plate (preferably from Euro-Diagnostica, Arnhem, The Netherlands) is coated with streptavidin. The streptavidin coated 96 wells plate is blocked with PBS containing 5% BSA (200 μl/well, 1 h, room temperature). Subsequently, the plate is washed three times with PBS containing 0.05% TWEEN20® (polysorbate 20). A biotinylated peptide is coated by 1 h incubation at room temperature with 100 μl/well of a 2 μg/ml solution of the biotinylated peptide in PBS containing 1% BSA. The plate is washed three times with PBS containing 0.05% TWEEN20® (polysorbate 20) followed by incubation for 1 h at room temperature with 100 μl serum from […] a human subject as defined above (preferably having a high titer of anti-TTd antibodies) that had been diluted at least 100, 200, 400, 500 or 1000 times and preferably not more than 100,000, 10,000, 7,500, 5,000 or 2,500 times with PBS containing 1% BSA. Then the plate is washed three times with PBS containing 0.05% TWEEN20®(polysorbate 20). Each well is incubated for 1 h at room temperature with a HRP-conjugated IgG antibody (mouse anti-human IgG-HRP monoclonal, clone G18-145, cat no 555788, Becton Dickinson, 100 μl/well of a 1000× dilution in PBS containing 0.05% TWEEN20® (polysorbate 20)) after which the plate is washed three times with PBS containing 0.05% TWEEN20® (polysorbate 20). Development is performed with 2,2′-azino-di-(3-ethylbenzthiazoline sulfonic acid), ABTS+H2O2 1/1000, 100 μl/well. Optical density is measured at 415 nm with a BIO-RAD, model 680, microplate reader. In each plate, preferably a negative contol is included, more preferably at least in triplicate. A preferred negative contol is serum from a human subject without detectable anti-TTd antibodies. Another preferred negative control is a solution of BSA. A peptide according to (ii) above is a peptide according to the invention if it is bound by antibodies in at least 40, 45, 50, 55, 60, 65, 70, 75, 80, 85, 87, 90, 91, 92, 93, 94, 95, 96, 97, 98, 99% most preferably 100% of the tested human serum samples. A peptide is considered to be bound by antibodies in a serum sample if the determined optical density for that particular serum sample is at least 2.0, more preferably 2.5, 3.0, 3.5 or more times higher as compared to the optical density that is determined for the negative control.
# Streptavidin coated 96 wells plates (Euro-Diagnostica) were blocked with PBS containing 5% BSA (200 μl/well, 1 h, room temperature). Plates were washed three times with PBS containing 0.05% TWEEN20® (polysorbate 20). Coating of the biotinylated peptides was performed by 1 h incubation at room temperature with 100 μl/well of a 2 μg/ml solution of the biotinylated peptide in PBS containing 1% BSA. Plates were washed three times with PBS containing 0.05% TWEEN20®. Wells were incubated for 1 h at room temperature with either 100 μl TETAQUIN® […] that had been diluted 800× with PBS containing 1% BSA or with 100 μl human serum that had been diluted 100× with PBS containing 1% BSA. Plates were washed three times with PBS containing 0.05% TWEEN20® (polysorbate 20). Each well was incubated for 1 h at room temperature with a HRP-conjugated IgG antibody (mouse anti-human IgG-HRP monoclonal, clone G18-145, cat no 555788, Becton Dickinson, 100 μl/well of a 1000× dilution in PBS containing 0.05% TWEEN20® (polysorbate 20)). Plates were washed three times with PBS containing 0.05% TWEEN20® (polysorbate 20). Development was performed with 2,2′-azino-di-(3-ethylbenzthiazoline sulfonic acid), ABTS+H2O2 1/1000, 100 μl/well. Optical density was measured at 415 nm with a BIO-RAD, model 680, microplate reader.
# Thereafter, the inventors tested these 7 peptides on individual sera, because an epitope is needed to which every person makes antibodies.
# [3] = Table 6, conservative substitutions scan of […]
# [4] = Table 3, further length variants and Lys(formyl) variants, […], neg. control OD 0.30
# [5] = Table 2, length variants of peptide β-32, section 'With linker', […] diluted 800x, OD at 415 nm
# [6] = Table 2, length variants of peptide β-32, section 'Without linker' (sequence listed without Z O), […]
Substance,"ELISA OD TETAQUIN ([1]; Table 5, Ala scan of […])","ELISA OD SERUM 034960 ([2]; Table 5, Ala scan of […])","ELISA OD TETAQUIN [1, 3]","ELISA OD SERUM 034960 [2, 3]",other results
A I G I T E L K K L E S K I N K V F Z O [0942-10],1.12,1.29,,,
F A G I T E L K K L E S K I N K V F Z O [0942-11],1.04,1.18,,,
F I A I T E L K K L E S K I N K V F Z O [0942-12],0.65,0.23,,,
F I G A T E L K K L E S K I N K V F Z O [0942-13],0.30,0.18,,,
F I G I A E L K K L E S K I N K V F Z O [0942-14],0.38,0.16,,,
F I G I S E L K K L E S K I N K V F Z O [0942-32],,,0.83,0.70,
F I G I T A L K K L E S K I N K V F Z O [0942-15],1.24,1.28,,,
F I G I T D L K K L E S K I N K V F Z O [0942-33],,,1.01,0.95,
F I G I T E A K K L E S K I N K V F Z O [0942-16],0.90,0.91,,,
F I G I T E I K K L E S K I N K V F Z O [0942-34],,,0.72,0.80,
F I G I T E L A K L E S K I N K V F Z O [0942-17],0.62,0.65,,,
F I G I T E L K A L E S K I N K V F Z O [0942-18],1.06,1.22,,,
F I G I T E L K K A E S K I N K V F Z O [0942-19],0.70,0.71,,,
F I G I T E L K K I E S K I N K V F Z O [0942-37],,,1.11,1.14,
F I G I T E L K K L A S K I N K V F Z O (FIGITELKKLASKINKVF[Ahx]K; not fully specified (residue 20)) [0942-20],0.85,0.91,,,
F I G I T E L K K L D S K I N K V F Z O (FIGITELKKLDSKINKVF[Ahx]K; not fully specified (residue 20)) [0942-38],,,0.41,0.37,
F I G I T E L K K L E A K I N K V F Z O (FIGITELKKLEAKINKVF[Ahx]K; not fully specified (residue 20)) [0942-21],1.27,1.48,,,
F I G I T E L K K L E S A I N K V F Z O (FIGITELKKLESAINKVF[Ahx]K; not fully specified (residue 20)) [0942-22],1.10,1.27,,,
F I G I T E L K K L E S K A N K V F Z O (FIGITELKKLESKANKVF[Ahx]K; not fully specified (residue 20)) [0942-23],0.88,1.08,,,

Substance,"ELISA OD TETAQUIN ([1]; Table 5, Ala scan of […])","ELISA OD SERUM 034960 ([2]; Table 5, Ala scan of […])","ELISA OD TETAQUIN [1, 3]","ELISA OD SERUM 034960 [2, 3]",other results
F I G I T E L K K L E S K I A K V F Z O (FIGITELKKLESKIAKVF[Ahx]K; not fully specified (residue 20)) [0942-24],1.37,1.29,,,
F I G I T E L K K L E S K I N A V F Z O (FIGITELKKLESKINAVF[Ahx]K; not fully specified (residue 20)) [0942-25],1.30,1.28,,,
F I G I T E L K K L E S K I N K A F Z O (FIGITELKKLESKINKAF[Ahx]K; not fully specified (residue 20)) [0942-26],1.24,1.39,,,
F I G I T E L K K L E S K I N K L F Z O (FIGITELKKLESKINKLF[Ahx]K; not fully specified (residue 20)) [0942-44],,,1.30,1.47,
F I G I T E L K K L E S K I N K V A Z O (FIGITELKKLESKINKVA[Ahx]K; not fully specified (residue 20)) [0942-27],1.26,1.20,,,
F I G I T E L K K L E S K I N K V F Z O [0942-09],1.26,1.36,1.26,1.36,"OD [1, 4]: 2.30"
"F I G I T E L K K L E S K I N K V Y Z O (FIGITELKKLESKINKVY[Ahx]K; not fully specified (residue 20); also: O: biotin modification, exact residue form not clear) [0942-45]",,,1.11,1.23,
F I G I T E L K K L E S K I N R V F Z O (FIGITELKKLESKINRVF[Ahx]K(Biotin)) [0942-43],,,1.26,1.31,
F I G I T E L K K L E S K I Q K V F Z O (FIGITELKKLESKIQKVF[Ahx]K(Biotin)) [0942-42],,,1.41,1.26,
F I G I T E L K K L E S K L N K V F Z O (FIGITELKKLESKLNKVF[Ahx]K(Biotin)) [0942-41],,,1.11,1.32,
F I G I T E L K K L E S R I N K V F Z O (FIGITELKKLESRINKVF[Ahx]K(Biotin)) [0942-40],,,1.19,1.27,
F I G I T E L K K L E T K I N K V F Z O (FIGITELKKLETKINKVF[Ahx]K(Biotin)) [0942-39],,,0.88,1.04,
F I G I T E L K R L E S K I N K V F Z O (FIGITELKRLESKINKVF[Ahx]K(Biotin)) [0942-36],,,1.12,1.23,
S K F I G I T E Z O (SKFIGITE-{Ahx-code O}; reading uncertain) [P33],,,,,"OD [1, 5]: 0.2; OD [1, 6]: 0.2"
SLTDLGGELCIKIKNEDLTFIAZO [β1],,,,,"ELISA OD, effect of longer spacer and C- versus N-terminal biotinylation [1]: 0.12"
T E L K K L E S K I N K V F Z O (TELKKLESKINKVF[Ahx]K(Biotin)) [0925-61],,,,,"OD [1, 4]: 0.35"
T E L K K L E S K I Z O (TELKKLESKI-{Ahx-code O}; reading uncertain) [P22],,,,,"OD [1, 5]: 0.2; OD [1, 6]: 0.2"
T E L K K L E S Z O (TELKKLES-{Ahx-code O}; reading uncertain) [P30],,,,,"OD [1, 5]: 0.2; OD [1, 6]: 0.2"
TSYLSITFLRDFWGNPLRYDTEZO [β55],,,,,"binding to TETAQUIN (screen of overlapping 22-mer TTx peptides) ([1]; FIG. 3 (α-chain), FIG. 4 (β-chain)): good binding; also recorded: antibodies present"
